The structures appear in SMILES notation.

Data set [1] can be described thus: Cytotoxicity against mouse 3LL cells after 5 days. The data set is classed as cell-based. Conditions: 120 h, read-out: LC50 (the source's name).
Data set [2] in a line: Differential index, LC50 for rat NRK 52E cells to LC50 for rat H-ras transformed NRK H/1.2 cells. Conditions: NRK 52E cells versus H-ras transformed NRK H/1.2 cells. The data set is classed as ADME, cell-based.
Data set [3] can be described thus: Differential index, LC50 for rat NRK 52E cells to LC50 for mouse 3LL cells. It is filed as ADME, cell-based. Particulars: NRK 52E cells versus 3LL cells.
The nature of data set [4]: Cytotoxicity against rat K-ras transformed NRK K/1 cells after 5 days. The data set is classed as cell-based. Particulars: NRK K/1, 120 h, read-out: LC50 (the source's name).
The nature of data set [5]: Cytotoxicity against rat N-ras transformed NRK N/4.2 cells after 5 days. It is filed as cell-based. Particulars: NRK N/4.2, 120 h, read-out: LC50 (the source's name).
The nature of data set [6]: Cytotoxicity against rat H-ras transformed NRK H/1.2 cells after 5 days. It is filed as cell-based. Particulars: NRK H/1.2, 120 h, read-out: LC50 (the source's name).
Data set [7] can be described thus: Cytotoxicity against rat NRK 52E cells after 5 days. It is filed as cell-based. Conditions: read-out: LC50.
The nature of data set [8]: Differential index, LC50 for rat NRK 52E cells to LC50 for rat N-ras transformed NRK N/4.2 cells. It is filed as ADME, cell-based. Conditions: NRK 52E cells versus N-ras transformed NRK N/4.2 cells.
The nature of data set [9]: Toxicity in mouse. It is filed as organism-based. Particulars: in vivo.
Data set [10] can be described thus: Differential index, LC50 for rat NRK 52E cells to LC50 for rat K-ras transformed NRK K/1 cells. The data set is classed as ADME, cell-based. Particulars: NRK 52E cells versus K-ras transformed NRK K/1 cells.
For data set [11], the system named is NRK. Description: Inhibition of tumor growth in CD1 nu/nu mouse implanted with rat K-ras transformed NRK K/1 cells at 100 mg/kg/day, ip for 7 days on day 10 relative to control. The data set is classed as functional. Conditions: route intraperitoneal.
For data set [12], the system named is Mus musculus. Description: Toxicity in nude mouse at 10 mg/kg/day after 7 days. It is filed as organism-based. Conditions: in vivo, 168 h.
The subject of data set [13] is Mus musculus. Description: Toxicity in nude mouse at 50 mg/kg/day after 7 days. It is filed as organism-based. Conditions: in vivo, 168 h.
In data set [14] the test system is Mus musculus. The data set is described as follows: Toxicity in nude mouse at 100 mg/kg/day after 7 days. Conditions: in vivo, 168 h. The data set is classed as organism-based.
Data set [15] has as its system Mus musculus. The data set is described as follows: Toxicity in nude mouse at 150 mg/kg/day assessed as death after 8 days. The data set is classed as organism-based. Conditions: in vivo, 192 h.
Data set [16] has as its system NRK. The data set is described as follows: Inhibition of tumor growth in CD1 nu/nu mouse implanted with rat K-ras transformed NRK K/1 cells at 300 mg/kg/day, ip after 8 days relative to control. The data set is classed as functional. Conditions: 192 h, route intraperitoneal.
The test system of data set [17] is Mus musculus. Description: Toxicity in nude mouse at 300 mg/kg/day assessed as death after 8 days. The data set is classed as organism-based. Particulars: in vivo, 192 h.
Data set [18] deals with NRK. The data set is described as follows: Inhibition of tumor growth in CD1 nu/nu mouse implanted with rat K-ras transformed NRK K/1 cells at 150 mg/kg/day, ip after 8 days relative to control. The data set is classed as functional. Particulars: 192 h, route intraperitoneal.

In the case of `NC1=CC(=O)c2ccc(-c3[nH]ccc4c5ccccc5nc3-4)nc2C1=O` [DECARBOXYDEMETHYLLAVENDAMYCIN], the CC50 in data set [1] was 250 nM; in [4], 31 nM; in data set [5], 60 nM; in data set [6], 110 nM. Besides, the selectivity ratio in data set [2] was 0.9; in data set [3], 0.4; in data set [8], 1.6; in data set [10] it was 3.2. In [7], the CC50 at 120 h is 100 nM. The same molecule had an MTD in data set [9] of 400 mg/kg.
With `CC(=O)NC1=CC(=O)c2ccc(-c3[nH]c(C(N)=O)cc4c5ccccc5nc3-4)nc2C1=O`, the CC50 in data set [1] was 210 nM; in data set [4], 350 nM; in data set [5], 220 nM; in data set [6], 230 nM. Further, the selectivity ratio in [3] was determined as 4.3; in data set [8], 4.1; in [10], 2.5. Besides, the CC50 at 120 h in [7] was found to be 900 nM. The MTD in data set [9] was 400 mg/kg.
For orientation: inhibition in vivo means how much of the control response was suppressed. Turning to `COC(=O)c1[nH]c(-c2ccc3c(n2)C(=O)C(NC(C)=O)=CC3=O)c2nc3ccccc3c-2c1C`, the inhibition in vivo at 100 mg/kg/day in [11] is 69%. The CC50 in [1] was greater than 33000 nM; in data set [4], 100 nM; in data set [6] it was 700 nM. Also, the selectivity ratio is 1.3 in [2], less than 0.03 in data set [3] and 9 in data set [10]. Also, the Activity entry in data set [12], in data set [13] and in [14] was “Non-toxic” throughout. In addition, the CC50 at 120 h in data set [7] turned out to be 900 nM.
On to `CCCCCCCCOC(=O)c1cc2c([nH]c3ccccc32)c(-c2ccc3c(n2)C(=O)C(NC(C)=O)=CC3=O)n1`, for which the CC50 in data set [1] is greater than 33000 nM; in [4], 250 nM; in data set [5] it was 9000 nM; in data set [6], 7600 nM. The selectivity ratio was greater than 4.3 in data set [2], 3.6 in [8] and greater than 132 in [10]. For the same molecule, the CC50 at 120 h in data set [7] was greater than 33000 nM. Besides, the Activity result in data set [15] and in data set [17] was “Non-toxic” throughout. In data set [16], this molecule displayed an inhibition in vivo at 300 mg/kg/day of 78%.
As to `CC(=O)NC1=CC(=O)c2ccc(-c3nc(C(=O)OCCC(C)C)cc4c3[nH]c3ccccc34)nc2C1=O`, the CC50 in [1] came to 1690 nM; in [4], 90 nM; in [5], 1500 nM; in data set [6] it was 1420 nM. In addition, the selectivity ratio in data set [2] stood at 1.1; in data set [3], 1; in data set [8], 1.1; in data set [10], 18. The same molecule came in with an inhibition in vivo at 150 mg/kg/day in data set [18] of 88%. For the same molecule, in [7], the CC50 at 120 h is 1620 nM. The Activity entry in data set [15] and in data set [17] was “Non-toxic” throughout.
Consider `CCCC(=O)NC1=CC(=O)c2ccc(C=O)nc2C1=O`, for which the CC50 in data set [1] was 2500 nM; in data set [4], greater than 3300 nM; in data set [5], greater than 3300 nM; in data set [6], 3300 nM. The CC50 at 120 h in data set [7] is 3000 nM. For the same molecule, the MTD in [9] was less than 10 mg/kg.

Source of the values: ChEMBL document CHEMBL1144487 (Bioorg Med Chem, 2007).
